Experiment [1] can be described thus: Antiproliferative activity against human U-87 MG cells assessed as cell growth inhibition by MTT assay. It counts as functional, cell-based, U-87MG ATCC. (Formazan colour is commonly taken as a measure of viable cells.)
For a further experiment, the system named is NCI-H460. In words: Antiproliferative activity against human NCI-H460 cells assessed as cell growth inhibition by MTT assay.
Another experiment concerns MKN-45. In words: Antiproliferative activity against human MKN-45 cells assessed as cell growth inhibition by MTT assay.
Another experiment has as its system SMMC-7721. In words: Antiproliferative activity against human SMMC-7721 cells assessed as cell growth inhibition by MTT assay.
The subject of another experiment is A549. In words: cells. The conditions noted are these: Homo sapiens.
The test system of another experiment is HT-29. The experiment can be described thus: cells. The conditions noted are these: Homo sapiens.
In a further experiment the test system is HepG2. The experiment can be described thus: Cytotoxicity against human HepG2 cells assessed as cell growth inhibition incubated for 48 hrs by MTT assay. The format is functional, cell-based. The conditions noted are these: Homo sapiens, HepG2, 48 h.
A further experiment deals with MCF7. In words: Cytotoxicity against human MCF7 cells assessed as cell growth inhibition incubated for 48 hrs by MTT assay. It counts as functional, cell-based. Particulars: MCF7, 48 h.
The test system of experiment [2] is Staphylococcus aureus. In words: Antibacterial activity against Staphylococcus aureus NCIM 2010 assessed as bacterial growth inhibition incubated for 8 hrs by absorbance based assay. The format is functional.
Experiment [3] has as its system Bacillus subtilis. In words: Antibacterial activity against Bacillus subtilis NCIM 2079 assessed as bacterial growth inhibition incubated for 8 hrs by absorbance based assay. The format is functional.
The subject of a further experiment is Escherichia coli. The experiment can be described thus: Antibacterial activity against Escherichia coli NCIM 2688 assessed as bacterial growth inhibition incubated for 8 hrs by absorbance based assay. It counts as functional.
The subject of a further experiment is Pseudomonas aeruginosa. In words: Antibacterial activity against Pseudomonas aeruginosa NCIM 2036 assessed as bacterial growth inhibition incubated for 8 hrs by absorbance based assay. The format is functional.
Experiment [4] relates to Mycobacterium tuberculosis. In words: Antimycobacterial activity against Mycobacterium tuberculosis H37Ra incubated for 8 to 12 days by XTT reduction menadione assay. It counts as functional. Particulars: time 8-12 day.
The subject of experiment [5] is Staphylococcus aureus. In words: Antibacterial activity against Staphylococcus aureus NCIM 2010 assessed as reduction in bacterial growth incubated for 8 hrs by absorbance based assay. It counts as functional, organism-based. Particulars: NCIM 2010, 8 h.
Experiment [6] concerns Bacillus subtilis. The experiment can be described thus: Antibacterial activity against Bacillus subtilis NCIM 2079 assessed as reduction in bacterial growth incubated for 8 hrs by absorbance based assay. The format is functional, organism-based. The conditions noted are these: NCIM 2079, 8 h.
The test system of the next experiment is NCI-H1299. The experiment can be described thus: Cytotoxicity against human NCI-H1299 cells assessed as cell growth inhibition incubated for 48 hrs by SRB assay. It counts as functional, cell-based. The conditions noted are these: NCI-H1299, 48 h. Background: The SRB assay estimates cell density from bound dye.
In the next experiment the test system is Leishmania amazonensis. The experiment can be described thus: Anti-promastigote activity against Leishmania amazonensis (IFLA/BR/67/PH8) assessed as promastigote growth inhibition incubated for 72 hrs by microscopic analysis. It counts as functional, organism-based.
The nature of experiment [7]: Inhibition of CaCC (unknown origin) current potentiation. More on the design: species or system Homo sapiens.
The mark [8] stands for this setting: Leishmania amazonensis, IFLA/BR/67/PH8, 72 h.

The text below walks through data of ChEMBL document CHEMBL5214926, “Recent contribution of medicinally active 2-aminothiophenes: A privileged scaffold for drug discovery” (Eur J Med Chem, 2022).

In brackets after ≈: the same amount, converted by molar mass.

Description for A549: Antiproliferative activity against human A549 cells assessed as cell growth inhibition by MTT assay
Description for HT-29: Antiproliferative activity against human HT-29 cells assessed as cell growth inhibition by MTT assay

The term IC50 denotes the concentration at which inhibition is half-maximal. Take `CCOC(=O)c1c(NC(=O)CC#N)sc(C(=O)Nc2ccccc2)c1-c1ccccc1`: the IC50 worked out at 620 nM in experiment [1]; 490 nM with NCI-H460; 590 nM with MKN-45; 530 nM in the experiment on SMMC-7721; 320 nM in the experiment on A549; 630 nM with HT-29.

For the molecule `CC(=O)c1ccc(Nc2c(C(=O)/C=C/c3ccccc3)sc(N)c2C#N)cc1`, the results for the IC50 with HepG2 and in the experiment with MCF7 were 73600 nM and 67500 nM, respectively.

The term MIC denotes the least concentration at which growth counts as inhibited. As a reminder, the EC50 is the concentration at which the effect is half-maximal. For the molecule `COC(=O)c1ccsc1NC(=O)N[C@@H](C(=O)N[C@@H]1C(=O)N2[C@@H]1SC(C)(C)[C@@H]2C(=O)O)c1ccccc1`, the minimum inhibitory concentration (MIC) is 0.28 µg/mL (≈ 0.526 µM) in the experiment on Staphylococcus aureus [2]; 0.55 µg/mL (≈ 1.03 µM) in the experiment on Bacillus subtilis [3]; over 10 µg/mL in the experiment with Escherichia coli; over 10 µg/mL with Pseudomonas aeruginosa; over 50 µg/mL in experiment [4]. The values for the EC50 with Staphylococcus aureus [5] and in the experiment on Bacillus subtilis [6] were 160 nM and 210 nM, respectively.

Take `N#Cc1c(N)sc(C(=O)Nc2ccccc2)c1-c1ccccc1`: the IC50 amounted to 8930 nM in [1]; 9620 nM with NCI-H460; 7090 nM in the experiment with MKN-45; 5090 nM in the experiment with SMMC-7721; 8280 nM in the experiment with A549; 8390 nM with HT-29.

Turning to `N#Cc1c(NC(=O)CNc2n[nH]c3ncccc23)sc2c1CCCC2`, the IC50 in the experiment on NCI-H1299 turned out to be 12.5 nM.

On to `COc1ccc2nc3cc(Cl)ccc3c(Nc3sc4c(c3C#N)CCCCC4)c2c1`, for which, in the experiment on Leishmania amazonensis (setting [8]), the EC50 was 32300 nM.

`N#Cc1c(NC(=O)CNc2onc3ncccc23)sc2c1CCCC2`: the IC50 with NCI-H1299 amounted to 18400 nM.

Consider `CC(C)(C)C1CCc2c(sc(NC(=O)C3CCCO3)c2C(=O)O)C1` (stereo unspecified), for which, in experiment [7], the IC50 amounted to 1700 nM.

Regarding `CC1(C)S[C@@H]2[C@H](NC(=O)[C@H](N)c3ccccc3)C(=O)N2[C@H]1C(=O)O` [AMPICILLIN], the MIC in the experiment on Staphylococcus aureus [2] is 0.28 µg/mL (≈ 0.801 µM); in the experiment with Bacillus subtilis [3] it was 0.28 µg/mL (≈ 0.801 µM); in the experiment on Escherichia coli, 0.88 µg/mL (≈ 2.52 µM); with Pseudomonas aeruginosa it was over 10 µg/mL. Besides, the EC50 in the experiment with Staphylococcus aureus [5] and in the experiment with Bacillus subtilis [6] was 150 nM in each case.

Consider `CCOC(=O)c1c(N)sc(C(=O)Nc2ccc(Cl)cc2)c1-c1ccccc1`, for which the IC50 amounted to 390 nM in [1]; 380 nM in the experiment on NCI-H460; 260 nM in the experiment with MKN-45; 420 nM in the experiment with SMMC-7721; 230 nM in the experiment with A549; 190 nM in the experiment with HT-29.

Regarding `COC(=O)c1c(N)sc2c1CCC(C(C)(C)C)C2` (stereo unspecified), in experiment [7], the IC50 turned out to be 4600 nM.

In the case of `COc1ccc2nc3cc(Cl)ccc3c(Nc3sc4c(c3C(N)=O)CCCC4)c2c1`, in the experiment on Leishmania amazonensis (setting [8]), the EC50 is 31800 nM.

For `N#CCC(=O)Nc1sc(C(=O)Nc2ccc(Cl)cc2)c(-c2ccccc2)c1C#N`, the IC50 in [1] was 860 nM; in the experiment with NCI-H460 it was 1040 nM; with MKN-45, 590 nM; with SMMC-7721 it was 390 nM; with A549 it was 1400 nM; in the experiment with HT-29 it was 860 nM.

In the case of `COC(=O)c1c(NC(=O)N[C@@H](C(=O)N[C@@H]2C(=O)N3[C@@H]2SC(C)(C)[C@@H]3C(=O)O)c2ccccc2)sc2c1CCCCCC2`, the MIC is 0.28 µg/mL (≈ 0.455 µM) in the experiment on Staphylococcus aureus [2]; 2.3 µg/mL (≈ 3.74 µM) in the experiment on Bacillus subtilis [3]; over 10 µg/mL in the experiment with Escherichia coli; over 10 µg/mL in the experiment on Pseudomonas aeruginosa; 23.3 µg/mL (≈ 37.8 µM) in [4]. Further, the EC50 in the experiment on Staphylococcus aureus [5] amounted to 150 nM; with Bacillus subtilis [6] it was 280 nM.

Regarding `CCOC(=O)c1c(Nc2c3ccc(Cl)cc3nc3ccc(OC)cc23)sc2c1CCCC2`, the EC50 in the experiment on Leishmania amazonensis was 26600 nM; with Leishmania amazonensis (setting [8]), 51400 nM.

Take `CC(=O)c1ccc(Nc2c(C(C)=O)sc(N)c2C#N)cc1`: the IC50 in the experiment on HepG2 came out at 88500 nM; in the experiment with MCF7, 91500 nM.

With `COc1cc2c(Oc3ccc(NC(=O)C4(C(=O)Nc5ccc(F)cc5)CC4)cc3F)ccnc2cc1OCCCN1CCOCC1` [FORETINIB], the IC50 in experiment [1] was determined as 900 nM.

Regarding `COC(=O)c1ccsc1NC(=O)N[C@@H](C(=O)N[C@@H]1C(=O)N2[C@@H]1SC(C)(C)[C@@H]2C(=O)O)c1ccc(O)cc1`, the MIC is 0.29 µg/mL (≈ 0.529 µM) with Staphylococcus aureus [2]; 0.32 µg/mL (≈ 0.583 µM) with Bacillus subtilis [3]; over 10 µg/mL with Escherichia coli; over 10 µg/mL with Pseudomonas aeruginosa; over 50 µg/mL in experiment [4]. Moreover, the half-maximal effective concentration (EC50) in the experiment with Staphylococcus aureus [5] and in the experiment with Bacillus subtilis [6] was 150 nM throughout.

For the molecule `N#CCC(=O)Nc1sc(C(=O)Nc2ccccc2)c(-c2ccccc2)c1C#N`, the IC50 turned out to be 6280 nM in experiment [1]; 8060 nM with NCI-H460; 9140 nM in the experiment with MKN-45; 7930 nM in the experiment on SMMC-7721; 7590 nM with A549; 6590 nM with HT-29.

As to `COc1ccc2nc3cc(Cl)ccc3c(Nc3sc4c(c3C#N)CCCCCC4)c2c1`, in the experiment on Leishmania amazonensis (setting [8]), the EC50 was determined as 69000 nM.
